Data as given in patent US8354414B2, “Substituted bicyclic pyrimidines” (Cephalon, Inc, priority 2006, dated 2013).
Where two headings read alike, the source gives them in different places.

Columns and labels:
CDK5/GST-p25 = target: T1, CDK5/GST-p25 (Homo sapiens, UniProt Q00535); experiment: Inhibition of CDK5/GST-p25 kinase activity (ELISA with time-resolved fluorescence readout); type: biochemical
T1 construct: The final construct, encoding for full-length human CDK5; made in house; host or cells: Sf21 insect cells (baculovirus co-infection)
Method in brief: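 The substrate, GST-Rb(773-928), was immobilised on plates and phosphorylated for 20 min at 37 °C by 2 ng/ml CDK5/GST-p25 in HEPES pH 7.2 with 10 µM ATP and 10 mM MgCl2. Both proteins were human and co-expressed in insect cells. Ser-780 phosphorylation was read by europium time-resolved fluorescence and converted to IC50.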

His6-GSK-3β = target: T2, His6-GSK-3β (Homo sapiens, UniProt P49841); experiment: Inhibition of His6-GSK-3β kinase activity (ELISA-based format, time-resolved fluorescence readout); type: biochemical; conditions: read-out: GSK3β IC50
T2 construct: made in house; host or cells: Sf21 insect cells (baculovirus)
Method in brief: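 Plate-bound recombinant GST-Rb substrate was phosphorylated for 30 min at 37° C by baculovirus-expressed His6-GSK-3β (200 ng/ml) at 20 μM ATP, 10 mM MgCl2, 2.5% DMSO. Europium time-resolved fluorescence of anti-phospho-Ser780 Rb signal gave inhibition, fitted to IC50.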

T1 sequence (Q00535 whole entry): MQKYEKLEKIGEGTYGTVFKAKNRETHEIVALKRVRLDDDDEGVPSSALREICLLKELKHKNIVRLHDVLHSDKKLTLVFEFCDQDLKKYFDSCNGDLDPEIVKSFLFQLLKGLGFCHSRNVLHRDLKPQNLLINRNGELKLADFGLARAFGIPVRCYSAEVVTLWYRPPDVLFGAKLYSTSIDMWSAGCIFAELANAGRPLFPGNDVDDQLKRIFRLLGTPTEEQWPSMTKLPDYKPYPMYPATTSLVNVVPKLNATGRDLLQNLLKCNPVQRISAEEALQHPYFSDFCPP
T1 sequence (Q15078 108-307 partner limits assumed): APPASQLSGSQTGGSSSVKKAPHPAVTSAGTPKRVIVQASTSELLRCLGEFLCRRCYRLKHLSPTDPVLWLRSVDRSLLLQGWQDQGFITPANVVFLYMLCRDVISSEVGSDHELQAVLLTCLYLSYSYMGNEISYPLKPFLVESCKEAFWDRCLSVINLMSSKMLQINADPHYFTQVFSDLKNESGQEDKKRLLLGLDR
T2 sequence (P49841 2-419): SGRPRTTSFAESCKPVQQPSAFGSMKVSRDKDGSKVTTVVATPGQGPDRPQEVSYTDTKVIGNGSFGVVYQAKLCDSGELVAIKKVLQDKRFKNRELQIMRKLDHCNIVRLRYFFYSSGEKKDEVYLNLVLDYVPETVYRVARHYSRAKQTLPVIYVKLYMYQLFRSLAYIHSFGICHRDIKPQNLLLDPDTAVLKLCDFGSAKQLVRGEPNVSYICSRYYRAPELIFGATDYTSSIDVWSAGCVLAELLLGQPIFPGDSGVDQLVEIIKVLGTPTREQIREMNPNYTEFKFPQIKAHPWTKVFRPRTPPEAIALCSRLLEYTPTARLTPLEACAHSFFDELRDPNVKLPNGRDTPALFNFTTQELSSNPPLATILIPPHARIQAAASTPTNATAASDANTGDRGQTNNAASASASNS

Structure (SMILES)	IC50 (CDK5/GST-p25; class symbols) [nM]	IC50 (His6-GSK-3β; class symbols) [nM]	melting point	inhibition at 10 µM (CDK5/GST-p25) [%]	IC50 (His6-GSK-3β; numeric bounds) [nM]	IC50 (CDK5/GST-p25; numeric bounds) [nM]
CCOCCn1cc2c(C3C(=O)Nc4ccc(Cl)cc43)nc(Cl)nc2n1 (stereo not drawn) [Example 211, 5-Chloro-3-[6-chloro-2-(2-ethoxy-ethyl)-2H-pyrazolo[3,4-d]pyrimidin-4-yl]-1,3-dihydro-indol-2-one]	> 10000	> 10000	> 300 °C			
O=C1Nc2ccccc2C1c1nc(NCCc2ccccn2)nc2nn(C3CCCC3)cc12 (stereo not drawn) [Example 242, 3-[2-Cyclopentyl-6-(2-pyridin-2-yl-ethylamino)-2H-pyrazolo[3,4-d]pyrimidin-4-yl]-1,3-dihydro-indol-2-one]		300 to 3000	246 to 248 °C	43		
CCOCCn1cc2c(C3C(=O)Nc4ccc(Cl)cc43)nc(NCc3ccncc3)nc2n1 (stereo not drawn) [Example 214, 5-Chloro-3-{2-(2-ethoxy-ethyl)-6-[(pyridine-4-ylmethyl)-amino]-2H-pyrazolo[3,4-d]pyrimidin-4-yl}-1,3-dihydro-indol-2-one]	< 300	< 300	298 to 299 °C			
CCCn1cc2c(C3C(=O)Nc4ccc(C#N)cc43)nc(NCCc3cccnc3)nc2n1 (stereo not drawn) [Example 185, 2-Oxo-3-[2-propyl-6-(2-pyridin-3-yl-ethylamino)-2H-pyrazolo [3,4-d]pyrimidin-4-yl]-2,3-dihydro-1H-indole-5-carbonitrile]	< 300	< 300	302 to 305 °C			
O=C1Nc2cc(F)ccc2C1c1ncnc2nn(C3CCCC3)cc12 (stereo not drawn) [Example 41, 3-(2-Cyclopentyl-2H-pyrazolo[3,4-d]pyrimidin-4-yl)-6-fluoro-1,3-dihydro-indol-2-one]	300 to 3000	300 to 3000	258 to 263 °C			
O=C1Nc2ccc(F)c(F)c2C1c1ncnc2nn(C3CCCC3)cc12 (stereo not drawn) [Example 42, 3-(2-Cyclopentyl-2H-pyrazolo[3,4-d]pyrimidin-4-yl)-4,5-difluoro-1,3-dihydro-indol-2-one]	300 to 3000	300 to 3000	280 to 284 °C			
CCCn1cc2c(C3C(=O)Nc4ccc(Cl)cc43)ncnc2n1 (stereo not drawn) [Example 98, 5-Chloro-3-(2-propyl-2H-pyrazolo[3,4-d]pyrimidin-4-yl)-1,3-dihydro-indol-2-one]	< 300	< 300	302 to 306 °C			
O=C1Nc2cc(Cl)ccc2C1c1ncnc2nn(C3CCCC3)cc12 (stereo not drawn) [Example 32, 6-Chloro-3-(2-Cyclopentyl-2H-pyrazolo [3,4-d]pyrimidin-4-yl)-2-oxo-1,3-dihydro-indol-2-one]	300 to 3000		294 to 296 °C		> 3000	
CC(C)n1cc2c(C3C(=O)Nc4ccc(Cl)cc43)ncnc2n1 (stereo not drawn) [Example 381, 5-Chloro-3-(2-isopropyl-2H-pyrazolo[3,4-d]pyrimidin-4-yl)-1,3-dihydro-indol-2-one]	< 300	300 to 3000	> 300 °C			
O=C1Nc2ccc(F)cc2C1c1ncnc2c1cnn2C1CCCCC1 (stereo not drawn) [Example 72, 3-(1-Cyclohexyl-1H-pyrazolo[3,4-d]pyrimidin-4-yl)-5-fluoro-1,3-dihydro-indol-2-one]	> 10000	> 10000	282 to 286 °C			
C=CCNc1nc(C2C(=O)Nc3ccc(C(F)(F)F)cc32)c2cn(C3CCCC3)nc2n1 (stereo not drawn) [Example 248, 3-(6-Allylamino-2-cyclopentyl-2H-pyrazolo[3,4-d]pyrimidin-4-yl)-5-trifluoromethyl-1,3-dihydro-indol-2-one]	> 10000	< 300	> 300 °C			
Cn1nc([N+](=O)[O-])c2c(C3C(=O)Nc4ccc(C#N)cc43)ncnc21 (stereo not drawn) [Example 148, 3-(1-Methyl-3-nitro-1H-pyrazolo[3,4-d]pyrimidin-4-yl)-2-oxo-2,3-dihydro-1H-indole-5-carbonitrile]	> 10000	> 10000	> 300 °C (dec.)			
CN(C)CCNc1nc(C2C(=O)Nc3ccc(C(F)(F)F)cc32)c2cn(C3CCCC3)nc2n1 (stereo not drawn) [Example 251, 3-[2-Cyclopentyl-6-(2-dimethylamino-ethylamino)-2H-pyrazolo[3,4-d]pyrimidin-4-yl]-5-trifluoromethyl-1,3-dihydro-indol-2-one]		< 300	211 to 213 °C			> 3000
O=C1Nc2c(F)cc(F)cc2C1c1ncnc2c1cnn2C1CCCC1 (stereo not drawn) [Example 61, 3-(1-cyclopentyl-1H-pyrazolo[3,4-d]pyrimidin-4-yl)-5,7-difluoro-1,3-dihydro-indol-2-one]	> 10000	> 10000	> 300 °C			
CCCCCn1cc2c(C3C(=O)Nc4ccc(C(F)(F)F)cc43)nc(NCCCN3CCOCC3)nc2n1 (stereo not drawn) [Example 290, 3-[6-(3-Morpholin-4-yl-propylamino)-2-pentyl-2H-pyrazolo[3,4-d]pyrimidin-4-yl]-5-trifluoromethyl-1,3-dihydro-indol-2-one]		< 300	230 °C (dec.)	73		
O=C1Nc2ccc(Cl)cc2C1c1ncnc2nn(C3CCCC3)cc12 (stereo not drawn) [Example 36, 5-Chloro-3-(2-Cyclopentyl-2H-pyrazolo [3,4-d]pyrimidin-4-yl)-2-oxo-1,3-dihydro-indol-2-one]	< 300	< 300	290 to 292 °C			
O=C1Nc2ccccc2C1c1nc(Cl)nc2nn(C3CCCC3)cc12 (stereo not drawn) [Example 152, 3-(6-Chloro-2-cyclopentyl-2H-pyrazolo[3,4-d]pyrimidin-4-yl)-1,3-dihydro-indol-2-one]	> 10000	> 10000	270 to 273 °C			
O=C1Nc2ccc(F)cc2C1c1ncnc2c1cnn2C1CCCC1 (stereo not drawn) [Example 65, 3-(1-Cyclopentyl-1H-pyrazolo[3,4-d]pyrimidin-4-yl)-5-fluoro-1,3-dihydro-indol-2-one]	> 10000	> 10000	254 to 257 °C			

Other lines, results leading:

IC50 (CDK5/GST-p25; class symbols) [nM]	IC50 (His6-GSK-3β; class symbols) [nM]	melting point	inhibition at 10 µM (CDK5/GST-p25) [%]	IC50 (His6-GSK-3β; numeric bounds) [nM]	IC50 (CDK5/GST-p25; numeric bounds) [nM]	Structure (SMILES)
< 300	300 to 3000	260 to 262 °C				Cn1cc2c(C3C(=O)Nc4ccc(Br)cc43)nc(NCCN)nc2n1 (stereo not drawn) [Example 303, 3-[6-(2-Amino-ethylamino)-2-methyl-2H-pyrazolo [3,4-d]pyrimidin-4-yl]-5-bromo-1,3-dihydro-indol-2-one]
< 300	< 300	> 300 °C				CCOCCn1cc2c(C3C(=O)Nc4ccc(Cl)cc43)nc(NC[C@H](C)O)nc2n1 (stereo partly drawn) [Example 219, 5-Chloro-3-[2-(2-ethoxy-ethyl)-6-((S)-2-hydroxy-propylamino)-2H-pyrazolo [3,4-d]pyrimidin-4-yl]-1,3-dihydro-indol-2-one]
< 300	< 300	270 to 274 °C				CCCn1cc2c(C3C(=O)Nc4ccc(Br)cc43)nc(NCCN(C)C)nc2n1 (stereo not drawn) [Example 197, 5-Bromo-3-[6-(2-dimethylamino-ethylamino)-2-propyl-2H-pyrazolo[3,4-d]pyrimidin-4-yl]-1,3-dihydro-indol-2-one]
< 300	< 300	300 to 301 °C				COCCn1cc2c(C3C(=O)Nc4ccc(Br)cc43)nc(NCc3cccnc3)nc2n1 (stereo not drawn) [Example 232, 5-Bromo-3-{2-(2-methoxy-ethyl)-6-[(pyridin-3-ylmethyl)-amino]-2H-pyrazolo[3,4-d]pyrimidin-4-yl}-1,3-dihydro-indol-2-one]
< 300	< 300	310 °C (dec.)				CCCn1cc2c(C3C(=O)Nc4ccc(Br)cc43)nc(NC[C@@H](C)O)nc2n1 (stereo partly drawn) [Example 195, 5-Bromo-3-[6-((R)-2-hydroxy-propylamino)-2-propyl-2H-pyrazolo [3,4-d]pyrimidin-4-yl]-1,3-dihydro-indol-2-one]
> 10000		> 300 °C		> 3000		CCCn1cc2c(C3C(=O)Nc4ccc(Br)cc43)nc(Cl)nc2n1 (stereo not drawn) [Example 188, 5-Bromo-3-(6-chloro-2-propyl-2H-pyrazolo[3,4-d]pyrimidin-4-yl)-1,3-dihydro-indol-2-one]
< 300	< 300	240 to 259 °C				CNCCCNc1nc(C2C(=O)Nc3ccc(Br)cc32)c2cn(CC(C)C)nc2n1 (stereo not drawn) [Example 267, 5-Bromo-3-[2-isobutyl-6-(3-methylamino-propylamino)-2H-pyrazolo[3,4-d]pyrimidin-4-yl]-1,3-dihydro-indol-2-one]
300 to 3000	300 to 3000	291 to 292 °C				COCCn1cc2c(C3C(=O)Nc4ccc(Br)cc43)nc(NCCN(C)C)nc2n1 (stereo not drawn) [Example 229, 5-Bromo-3-[6-(2-dimethylamino-ethylamino)-2-(2-methoxy-ethyl)-2H-pyrazolo[3,4-d]pyrimdin-4-yl]-1,3-dihydro-indol-2-one]
< 300	< 300	249 to 259 °C				COCCNc1nc(C2C(=O)Nc3ccc(Cl)cc32)c2cn(C3CCCC3)nc2n1 (stereo not drawn) [Example 277, 5-Chloro-3-[2-cyclopentyl-6-(2-methyoxy-ethylamino)-2H-pyrazolo[3,4-d]pyrimidin-4-yl]-1,3-dihydro-indol-2-one]
> 10000	> 10000	260 to 263 °C				CCOCCn1cc2c(C3C(=O)Nc4ccc(Br)cc43)nc(Cl)nc2n1 (stereo not drawn) [Example 236, 5-Bromo-3-[6-chloro-2-(2-ethoxy-ethyl)-2H-pyrazolo [3,4-d]pyrimidin-4-yl)-1,3-dihydro-indol-2-one]
